The values below come from PubChem BioAssay AID328 (DTP/NCI, 2004).

“And” between values parts separate entries of the source, which are not always exact repeats. Identical values can stand only once. Inconclusive results and toxic doses are left out.

The test system of the assay is BDF1 mice, P388 leukemia ip, median survival T/C. Briefly: NCI In Vivo Anticancer Drug Screen. Data for tumor model P388 Leukemia (intraperitoneal) in B6D2F1 (BDF1) mice. Particulars: endpoint: median survival time, higher = longer survival. The method, boiled down: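 Vehicle-dosed animals serve as the reference; survival of compound-dosed, tumour-implanted mice is divided by it.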

The mark [1] stands for this setting: dose: 100.0 mg/kg/injection, schedule: Q01DX009 (ip), vehicle: Klucel (hydroxypropylcellulose) (HPC).
Setting [2] is: dose: 25.0 mg/kg/injection, schedule: Q01DX009 (ip), vehicle: Klucel (hydroxypropylcellulose) (HPC).
Where [3] appears, read: dose: 50.0 mg/kg/injection, schedule: Q01DX009 (ip), vehicle: Klucel (hydroxypropylcellulose) (HPC).

For the compound `O=NN(CCBr)C(=O)NCCBr`, the T/C reads like this: (dose: 30.0 mg/kg/injection, schedule: Q01DX009 (ip), vehicle: gum acacia) 158 % of control; (dose: 44.0 mg/kg/injection, schedule: Q01DX009 (ip), vehicle: gum acacia) 158 % of control; (dose: 50.0 mg/kg/injection, schedule: Q01DX009 (ip), vehicle: gum acacia) 196 % of control; (dose: 67.0 mg/kg/injection, schedule: Q01DX009 (ip), vehicle: gum acacia) 169 % of control and 191 % of control; (dose: 67.0 mg/kg/injection, schedule: Q04DX003 (ip), vehicle: gum acacia) 165 % of control; under setting [1], 112 % of control. In addition, the T/C by setting is: (dose: 100.0 mg/kg/injection, schedule: Q01DX009 (ip), vehicle: gum acacia) 192 % of control and 200 % of control; (dose: 100.0 mg/kg/injection, schedule: Q04DX003 (ip), vehicle: gum acacia) 173 % of control; (dose: 100.0 mg/kg/injection, schedule: Q04DX003 (ip), vehicle: saline) 118 % of control; (dose: 150.0 mg/kg/injection, schedule: Q01DX009 (ip), vehicle: gum acacia) 226 % of control; (dose: 150.0 mg/kg/injection, schedule: Q04DX003 (ip), vehicle: gum acacia) 230 % of control; (dose: 200.0 mg/kg/injection, schedule: Q01DX009 (ip), vehicle: Klucel (hydroxypropylcellulose) (HPC)) 154 % of control. The T/C is 170 % of control (dose: 400.0 mg/kg/injection, schedule: Q01DX009 (ip), vehicle: Klucel (hydroxypropylcellulose) (HPC)) and 190 % of control (dose: 400.0 mg/kg/injection, schedule: Q04DX003 (ip), vehicle: saline).

In the case of `CCCCCCC(=O)/C=C/c1cccc(OC)c1`, the T/C is 90 % of control (dose: 50.0 mg/kg/injection, schedule: Q01DX009 (ip), vehicle: saline with Tween-80); 105 % of control (dose: 100.0 mg/kg/injection, schedule: Q01DX009 (ip), vehicle: saline with Tween-80); 105 % of control (dose: 200.0 mg/kg/injection, schedule: Q01DX009 (ip), vehicle: saline with Tween-80).

As for `CC(=O)c1cccc(NC2C(N)C(NC(=O)N(C)C)(C(C)O)C(C)(O)C2(O)COC(=O)c2c(C)cccc2O)c1` (stereo unspecified), the T/C was 167 % of control (dose: 5.4 mg/kg/injection, schedule: Q04DX003 (ip), vehicle: alkali diluted with saline); 163 % of control (dose: 6.5 mg/kg/injection, schedule: Q04DX003 (ip), vehicle: alkali diluted with saline); 159 % of control (dose: 8.64 mg/kg/injection, schedule: Q04DX003 (ip), vehicle: alkali diluted with saline); 170 % of control (dose: 9.0 mg/kg/injection, schedule: Q04DX003 (ip), vehicle: alkali diluted with saline); 169 % of control (dose: 10.8 mg/kg/injection, schedule: Q04DX003 (ip), vehicle: alkali diluted with saline).

For the compound `N#CC(C#N)=Cc1ccc(Cl)c(Cl)c1`, the T/C reads like this: under setting [2], 115 % of control; under setting [3], 100 % of control; (dose: 50.0 mg/kg/injection, schedule: Q04DX003 (ip), vehicle: Klucel (hydroxypropylcellulose) (HPC)) 100 % of control; under setting [1], 120 % of control; (dose: 100.0 mg/kg/injection, schedule: Q04DX003 (ip), vehicle: Klucel (hydroxypropylcellulose) (HPC)) 100 % of control.

On to `O=C(Nc1cccc2c1N(C(=O)c1ccco1)CCC2)c1ccco1`, for which the T/C (dose: 100.0 mg/kg/injection, schedule: Q04DX003 (ip), vehicle: saline with Tween-80) was 91 % of control; the T/C (dose: 200.0 mg/kg/injection, schedule: Q04DX003 (ip), vehicle: saline with Tween-80) is 100 % of control; the T/C (dose: 400.0 mg/kg/injection, schedule: Q04DX003 (ip), vehicle: saline with Tween-80) was 104 % of control.

In the case of `[O-][n+]1onc2ccc(Cl)cc21`, the T/C is, setting by setting: (dose: 12.5 mg/kg/injection, schedule: Q01DX009 (ip), vehicle: Klucel (hydroxypropylcellulose) (HPC)) 100 % of control; under setting [2], 100 % of control; (dose: 37.5 mg/kg/injection, schedule: Q04DX003 (ip), vehicle: Klucel (hydroxypropylcellulose) (HPC)) 95 % of control; under setting [3], 95 % of control; (dose: 75.0 mg/kg/injection, schedule: Q04DX003 (ip), vehicle: Klucel (hydroxypropylcellulose) (HPC)) 117 % of control; (dose: 150.0 mg/kg/injection, schedule: Q04DX003 (ip), vehicle: Klucel (hydroxypropylcellulose) (HPC)) 86 % of control.
